The test system of assay [1] is Coagulase negative staphylococcus stationary phase bacteria. Kind of assay: Bactericidal activity against stationary-phase cultures (CFU counts). Type of assay: cell-based, Coagulase negative staphylococcus (CNS). As to conditions: 5 μg/mL of test compound.
The test system of assay [2] is Enterococcus stationary phase bacteria. The description is as above. Type of assay: cell-based. Particulars: 5 μg/mL of test compound.
Assay [3] concerns Streptococcus pyogenes stationary phase bacteria. The assay is described as above. Type of assay: cell-based. As to conditions: 20 μg/mL of test compound.
Assay [4] relates to methicillin-resistant Staph. aureus stationary phase bacteria. The description is as above. It counts as cell-based, Methicillin resistant S. aureus (MRSA). As to conditions: MRSA stationary phase, 10 μg/mL of test compound.
Assay [5] relates to Streptococcus agalactiae stationary phase bacteria. The description is as above. It counts as cell-based. Particulars: 10 μg/mL of test compound.
Assay [6] deals with stationary phase Candida albicans. Kind of assay: Activity against stationary-phase cultures of Candida albicans (CFU counts). Type of assay: cell-based. Particulars: 10 μg/mL of test compound.
Assay [7] relates to stationary phase Mycobacterium tuberculosis. Briefly: Bactericidal activity against M. tuberculosis stationary-phase cultures (Model 1). Type of assay: cell-based. Particulars: 10 μg/mL of test compound.
Assay [8] deals with Staph. aureus stationary phase bacteria. Kind of assay: Bactericidal activity against stationary-phase cultures (CFU counts). It counts as cell-based, Staphylococcus aureus. As to conditions: 5 μg/mL of test compound.
Assay [9] has as its system Streptococcus pneumoniae stationary phase bacteria. Described as above. Type of assay: cell-based. Particulars: 10 μg/mL of test compound.
In assay [10] the test system is E. coli K12 stationary phase bacteria. Described as above. Type of assay: cell-based, Escherichia coli K12. As to conditions: 10 μg/mL of test compound.
For assay [11], the system named is Propionibacterium acnes stationary phase bacteria. Described as above. Type of assay: cell-based. As to conditions: 10 μg/mL of test compound.

As to `Cc1cc(N2CCC(c3ccccc3)C2)c2cc(NC(=O)c3cc(C)[nH]n3)ccc2n1.Cl` (centres unmarked) [Example 22, 5-Methyl-1H-pyrazole-3-carboxylic acid [2-methyl-4-(3-phenylpyrrolidin-1-yl)-quinolin-6-yl]amide hydrochloride], the log kill in assay [1] was found to be 5.99; in assay [2], 3.22.
Molecule `COc1ccc(C2CCN(c3cc(C)nc4ccc(Oc5ccccc5)cc34)C2)cc1.Cl` (centres unmarked) [Example 9, 4-[3-(4-Methoxyphenyl)pyrrolidin-1-yl]-2-methyl-6-phenoxyquinoline hydrochloride] came in with a log kill in assay [3] of 6.42.
Take `Cc1cc(N2CCC(Cc3ccccc3)C2)c2cc(Oc3ccccc3)ccc2n1.Cl` (centres unmarked) [Example 8, 4-(3-Benzylpyrrolidin-1-yl)-2-methyl-6-phenoxyquinoline hydrochloride]: the log kill is reported as 6.34 in [4], 0.97 in assay [5], 3.70 in [6] and 5.76 in assay [7].
In turn, `Cc1cc(N2CCC(c3ccccc3)C2)c2cc(OCCc3ccccc3)ccc2n1.Cl` (centres unmarked) [Example 6, 2-Methyl-6-phenethyloxy-4-(3-phenylpyrrolidin-1-yl)quinoline hydrochloride] had a log kill in [8] of 6.16.
For the molecule `Cc1cc(N2CCC(c3ccccc3)C2)c2cc(Oc3ccccc3)ccc2n1.Cl` (centres unmarked) [Example 39, 2-Methyl-6-phenoxy-4-(3-phenylpyrrolidin-1-yl)quinoline hydrochloride], the log kill amounted to 7.32 in assay [9], 6.80 in [10] and 6.34 in assay [11].
